Activity calls are given as the source filed them. The calls are words filed in the database; no cut-off is given here.
What was measured:
HCT-116 [1] = experiment: Inhibition of cell invasion in human HCT-116 cells measured using transwell chamber by crystal violet staining based microscopic analysis; type: functional; details: dose 0.2-0.6 µM
SH-SY5Y [2] = experiment: Inhibition of colony formation in human SH-SY5Y cells incubated at 0.6 uM for 8 to 15 days measured by crystal violet staining based microscopic analysis; type: functional, cell-based; details: time 8-15 day
[3] = Antiproliferative activity against human HCT116-p53-null cells overexpressing MDMX assessed as cell growth inhibition incubated for 72 hrs by CCK-8 assay; type: functional, cell-based
HCT-116 [4] = experiment: Antiproliferative activity against human HCT-116 cells overexpressing MDM2 assessed as cell growth inhibition incubated for 72 hrs by CCK-8 assay; type: functional, cell-based; details: HCT-116, 72 h
[5] = Cytotoxicity against human LO2 cells incubated for 72 hrs by CCK-8 assay; type: toxicity, cell-based, L02
[6] = molecular target: E3 ubiquitin-protein ligase Mdm2 (Homo sapiens, UniProt Q00987); experiment: Binding affinity to MDM2 (1 to 118 residues) (unknown origin) assessed as inhibition constant incubated for 1 hr measured by fluorescence polarization assay
[7] = Cytotoxicity against human BEAS-2B cells incubated for 72 hrs by CCK-8 assay; type: toxicity, cell-based
SJSA-1 = experiment: Antiproliferative activity against human SJSA-1 cells overexpressing MDM2 assessed as cell growth inhibition incubated for 72 hrs by CCK-8 assay; type: functional, cell-based; details: SJSA-1, 72 h
Protein Mdm4 = molecular target: T1, Protein Mdm4 (Homo sapiens, UniProt O15151); experiment: Binding affinity to MDMX (1 to 118 residues) (unknown origin) assessed as inhibition constant incubated for 1 hr measured by fluorescence polarization assay
T1 sequence (O15151 whole entry): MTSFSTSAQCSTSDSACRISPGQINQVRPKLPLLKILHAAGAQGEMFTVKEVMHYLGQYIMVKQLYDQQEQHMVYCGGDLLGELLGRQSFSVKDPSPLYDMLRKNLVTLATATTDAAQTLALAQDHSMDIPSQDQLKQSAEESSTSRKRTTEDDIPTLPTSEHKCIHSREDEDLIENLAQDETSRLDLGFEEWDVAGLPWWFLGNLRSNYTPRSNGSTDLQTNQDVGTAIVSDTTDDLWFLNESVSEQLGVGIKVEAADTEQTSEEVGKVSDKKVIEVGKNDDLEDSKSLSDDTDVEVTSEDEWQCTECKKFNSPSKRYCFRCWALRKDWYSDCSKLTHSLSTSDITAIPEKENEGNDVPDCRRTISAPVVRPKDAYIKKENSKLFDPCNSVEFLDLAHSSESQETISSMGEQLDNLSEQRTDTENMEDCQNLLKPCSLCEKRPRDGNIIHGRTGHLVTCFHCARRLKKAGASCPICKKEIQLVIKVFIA

SH-SY5Y [8] = experiment: Antiproliferative activity against human SH-SY5Y cells overexpressing MDMX assessed as cell growth inhibition incubated for 72 hrs by CCK-8 assay; type: functional, cell-based
SH-SY5Y [9] = experiment: Inhibition of cell migration in human SH-SY5Y cells measured using transwell chamber by crystal violet staining based microscopic analysis; type: functional; details: dose 0.2-0.6 µM
SH-SY5Y [10] = experiment: Inhibition of cell invasion in human SH-SY5Y cells measured using transwell chamber by crystal violet staining based microscopic analysis; type: functional; details: dose 0.2-0.6 µM
HCT-116 [11] = experiment: Inhibition of colony formation in human HCT-116 cells incubated at 0.6 uM for 8 to 15 days measured by crystal violet staining based microscopic analysis; type: functional, cell-based; details: time 8-15 day
HCT-116 [12] = experiment: Inhibition of cell migration in human HCT-116 cells measured using transwell chamber by crystal violet staining based microscopic analysis; type: functional; details: dose 0.2-0.6 µM
HCT-116 [13] = experiment: Antiproliferative activity against human HCT-116 cells overexpressing MDM2 assessed as cell growth inhibition incubated at 10 uM for 72 hrs by CCK-8 assay relative to control; type: functional
SH-SY5Y [14] = experiment: Antiproliferative activity against human SH-SY5Y cells overexpressing MDMX assessed as cell growth inhibition incubated at 10 uM for 72 hrs by CCK-8 assay relative to control; type: functional
HCT-116 [15] = experiment: Reactivation of p53 pathway in human HCT-116 cells assessed as increase in p53 level treated at 0.6 to 2.4 uM for 48 hrs measured by Western blotting analysis; type: cell-based; details: dose 0.6-2.4 µM
HCT-116 [16] = experiment: Induction of apoptosis in human HCT-116 cells assessed as apoptotic cells at 2.4 uM for 48 hrs measured by Annexin V-PI based flow cytometric analysis relative to control; type: functional
SH-SY5Y [17] = experiment: Reactivation of p53 pathway in human SH-SY5Y cells assessed as increase in MDM2 level treated at 0.6 to 2.4 uM for 48 hrs measured by Western blotting analysis; type: cell-based; details: dose 0.6-2.4 µM
SH-SY5Y [18] = experiment: Induction of apoptosis in human SH-SY5Y cells assessed as apoptotic cells at 0.6 uM for 48 hrs measured by Annexin V-PI based flow cytometric analysis relative to control; type: functional
SH-SY5Y [19] = experiment: Induction of cell cycle arrest in human SH-SY5Y cells assessed as decrease in accumulation of cells at G2 phase incubated at 0.6 to 2.4 uM for 48 hrs by measured by flow cytometric analysis; type: functional, cell-based; details: dose 0.6-2.4 µM
SH-SY5Y [20] = experiment: Reactivation of p53 pathway in human SH-SY5Y cells assessed as increase in cleaved caspase 3level treated at 0.6 to 2.4 uM for 48 hrs measured by Western blotting analysis; type: cell-based; details: dose 0.6-2.4 µM
SH-SY5Y [21] = experiment: Reactivation of p53 pathway in human SH-SY5Y cells assessed as increase in p21 level treated at 0.6 to 2.4 uM for 48 hrs measured by Western blotting analysis; type: cell-based; details: dose 0.6-2.4 µM
SH-SY5Y [22] = experiment: Reactivation of p53 pathway in human SH-SY5Y cells assessed as increase in MDMX level treated at 0.6 to 2.4 uM for 48 hrs measured by Western blotting analysis; type: cell-based; details: dose 0.6-2.4 µM
HCT-116 [23] = experiment: Induction of cell cycle arrest in human HCT-116 cells assessed as decrease in accumulation of cells at G2 phase incubated at 0.6 to 2.4 uM for 48 hrs by measured by flow cytometric analysis; type: functional, cell-based; details: dose 0.6-2.4 µM
HCT-116 [24] = experiment: Reactivation of p53 pathway in human HCT-116 cells assessed as increase in cleaved caspase 3 level treated at 0.6 to 2.4 uM for 48 hrs measured by Western blotting analysis; type: cell-based; details: dose 0.6-2.4 µM
SH-SY5Y [25] = experiment: Induction of apoptosis in human SH-SY5Y cells assessed as apoptotic cells at 2.4 uM for 48 hrs measured by Annexin V-PI based flow cytometric analysis relative to control; type: functional
[26] = molecular target: Cellular tumor antigen p53 (Homo sapiens) (UniProt P04637); experiment: Reactivation of p53 pathway in human HCT-116 cells assessed as increase in p21 level treated at 0.6 to 2.4 uM for 48 hrs measured by Western blotting analysis; type: cell-based; details: dose 0.6-2.4 µM
[27] = molecular target: Cellular tumor antigen p53 (Homo sapiens) (UniProt P04637); experiment: Reactivation of p53 pathway in human HCT-116 cells assessed as increase in MDMX level treated at 0.6 to 2.4 uM for 48 hrs measured by Western blotting analysis; type: cell-based; details: dose 0.6-2.4 µM
HCT-116 [28] = experiment: Induction of apoptosis in human HCT-116 cells assessed as apoptotic cells at 0.6 uM for 48 hrs measured by Annexin V-PI based flow cytometric analysis relative to control; type: functional
SH-SY5Y [29] = experiment: Induction of cell cycle arrest in human SH-SY5Y cells assessed as increase in accumulation of cells at G1 phase incubated at 0.6 to 2.4 uM for 48 hrs by measured by flow cytometric analysis; type: functional, cell-based; details: dose 0.6-2.4 µM
SH-SY5Y [30] = experiment: Reactivation of p53 pathway in human SH-SY5Y cells assessed as increase in p53 level treated at 0.6 to 2.4 uM for 48 hrs measured by Western blotting analysis; type: cell-based; details: dose 0.6-2.4 µM
[31] = molecular target: Tumour suppressor p53/oncoprotein Mdm2 (Homo sapiens) (UniProt P04637+Q00987); experiment: Inhibition of protein binding in p53/MDM2 in human HCT116 cells assessed as disruption of protein-protein interaction measured at 1.2 uM for 48 hrs by co-immunoprecipitation based Western blotting analysis; type: cell-based; details: HCT-116
[32] = molecular target: Cellular tumor antigen p53 (Homo sapiens) (UniProt P04637); experiment: Reactivation of p53 pathway in human HCT-116 cells assessed as increase in MDM2 level treated at 0.6 to 2.4 uM for 48 hrs measured by Western blotting analysis; type: cell-based; details: dose 0.6-2.4 µM
HCT-116 [33] = experiment: Induction of cell cycle arrest in human HCT-116 cells assessed as increase in accumulation of cells at G1 phase incubated at 0.6 to 2.4 uM for 48 hrs by measured by flow cytometric analysis; type: functional, cell-based; details: dose 0.6-2.4 µM

Sequence of Cellular tumor antigen p53 (Homo sapiens) (P04637 whole entry, looked up): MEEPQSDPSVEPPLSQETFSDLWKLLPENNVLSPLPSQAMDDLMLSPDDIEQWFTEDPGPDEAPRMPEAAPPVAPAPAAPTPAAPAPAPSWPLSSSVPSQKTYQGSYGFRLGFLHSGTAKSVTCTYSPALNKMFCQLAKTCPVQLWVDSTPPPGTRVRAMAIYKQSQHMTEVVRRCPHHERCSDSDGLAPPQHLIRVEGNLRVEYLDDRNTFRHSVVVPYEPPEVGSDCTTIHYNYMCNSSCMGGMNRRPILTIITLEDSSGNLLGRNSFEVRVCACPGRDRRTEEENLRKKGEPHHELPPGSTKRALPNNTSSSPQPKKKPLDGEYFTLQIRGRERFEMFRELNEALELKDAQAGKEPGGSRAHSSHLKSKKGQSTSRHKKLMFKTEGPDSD
Sequence of E3 ubiquitin-protein ligase Mdm2 (Q00987 whole entry, the tested form may be a part): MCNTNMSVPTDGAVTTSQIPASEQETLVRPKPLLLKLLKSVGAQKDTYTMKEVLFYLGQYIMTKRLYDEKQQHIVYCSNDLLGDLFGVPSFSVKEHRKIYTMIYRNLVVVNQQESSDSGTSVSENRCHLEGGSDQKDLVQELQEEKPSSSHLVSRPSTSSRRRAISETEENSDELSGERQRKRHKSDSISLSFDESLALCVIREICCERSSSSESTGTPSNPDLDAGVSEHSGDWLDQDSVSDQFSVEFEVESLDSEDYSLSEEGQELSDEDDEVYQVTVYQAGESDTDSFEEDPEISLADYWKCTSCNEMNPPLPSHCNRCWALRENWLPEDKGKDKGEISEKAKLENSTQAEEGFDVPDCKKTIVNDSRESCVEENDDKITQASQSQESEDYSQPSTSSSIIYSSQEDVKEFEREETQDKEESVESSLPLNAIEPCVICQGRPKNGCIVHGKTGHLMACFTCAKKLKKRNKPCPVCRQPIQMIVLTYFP
Sequence of Tumour suppressor p53/oncoprotein Mdm2 (Homo sapiens) (P04637 whole entry, looked up): as the sequence (P04637 whole entry, looked up) above
Sequence of Tumour suppressor p53/oncoprotein Mdm2 (Homo sapiens) (Q00987 whole entry, looked up): as the sequence (Q00987 whole entry, the tested form may be a part) above

| SMILES | inhibition (HCT-116 [1]) | inhibition (SH-SY5Y [2]) | IC50 [3] [µM] | IC50 (HCT-116 [4]) [µM] | IC50 at 72 h [5] [µM] | Ki [6] [µM] | IC50 at 72 h [7] [µM] | IC50 (SJSA-1) [µM] | Ki (Protein Mdm4) [µM] | IC50 (SH-SY5Y [8]) [µM] | inhibition (SH-SY5Y [9]) | inhibition (SH-SY5Y [10]) | inhibition (HCT-116 [11]) | inhibition (HCT-116 [12]) | further results |
| --- | --- | --- | --- | --- | --- | --- | --- | --- | --- | --- | --- | --- | --- | --- | --- |
| CN(C)C1CCN(C(=O)CCC(=O)N(c2ccc(Cl)cc2)C(C(=O)c2ccc(Cl)cc2)c2ccc(F)cc2Cl)CC1 (centres undefined) | Dose-Dependent Effect | Active | 13.6 | 0.72 | 12.7 | 0.28 | 16.3 | 0.64 | 3.46 | 0.69 | Dose-Dependent Effect | Dose-Dependent Effect | Active | Dose-Dependent Effect |  |
| COc1ccc(C2=N[C@H](c3ccc(Cl)cc3)[C@H](c3ccc(Cl)cc3)N2C(=O)N2CCNC(=O)C2)c(OC(C)C)c1 |  | Active | 29.5 | 11.3 |  |  |  |  |  |  |  |  | Active |  | inhibition at 10 µM (HCT-116 [13]): 49.2%; inhibition at 10 µM (SH-SY5Y [14]): 46.5% |
| O=C(c1ccc(Cl)cc1)C(c1ccc(F)cc1Cl)N(C(=O)CCC(=O)N1CCNCC1)c1ccc(Cl)cc1 (centres undefined) | Dose-Dependent Effect | Active | 14 | 0.68 | 15.9 | 0.23 | 18 | 0.58 | 2.45 | 0.54 | Dose-Dependent Effect | Dose-Dependent Effect | Active | Dose-Dependent Effect | Activity (HCT-116 [15]): Active; Activity (HCT-116 [16]): 37.6%; Activity (SH-SY5Y [17]): Active; Activity (SH-SY5Y [18]): 15.69%; Activity (SH-SY5Y [19]): Active; Activity (SH-SY5Y [20]): Active; Activity (SH-SY5Y [21]): Active; Activity (SH-SY5Y [22]): Active; Activity (HCT-116 [23]): Active; Activity (HCT-116 [24]): Active; Activity (SH-SY5Y [25]): 40.8%; Activity [26]: Active; Activity [27]: Active; Activity (HCT-116 [28]): 13.63%; Activity (SH-SY5Y [29]): Active; Activity (SH-SY5Y [30]): Active; inhibition [31]: Active; Activity [32]: Active; Activity (HCT-116 [33]): Active |
| CC(C)(C)OC(=O)N1CCN(C(=O)CCC(=O)N(c2ccc(Cl)cc2)C(C(=O)c2ccc(Cl)cc2)c2ccc(F)cc2Cl)CC1 (centres undefined) |  |  | 17.4 | 9.98 |  | 0.73 |  | 9.47 | 36.8 | 11.8 |  |  |  |  |  |
